From publication PMC8621456, “New Investigations with Lupane Type A-Ring Azepane Triterpenoids for Antimycobacterial Drug Candidate Design” (International Journal of Molecular Sciences, 2021)
Converted amounts (≈) assume the structure as drawn. Where two headings read alike, the source gives them in different places. Marks after values point to notes of the source that are not given here.

Tests used:
H37Rv (gyrA^D94K) [1] = settings: cited from earlier work
H37Rv (rpoB^S450L) [2] = settings: cited from earlier work
[3] = system: M. tuberculosis strain H37Rv; type: cell-based, Mycobacterium tuberculosis; settings: 2× the MIC
H37Rv (katG^del) = experiment: microbe, parasite or virus in culture; type: cell-based; settings: Mycobacterium tuberculosis, isoniazid mono-resistant strain
H37Rv (gyrA^D94K) [4] = type: cell-based, Mycobacterium tuberculosis
H37Rv (rpoB^S450L) [5] = type: cell-based, Mycobacterium tuberculosis

SMILES	MIC (µM) H37Rv (gyrA^D94K) (H37Rv (gyrA^D94K) [1])	MIC (µM) H37Rv (rpoB^S450L) (H37Rv (rpoB^S450L) [2])	FoR (order of magnitude stated in text) [3]	MIC (H37Rv (katG^del)) [µM]	MIC (µM) H37Rv (gyrA^D94K) (H37Rv (gyrA^D94K) [4]) [µM]	MIC (µM) H37Rv (rpoB^S450L) (H37Rv (rpoB^S450L) [5]) [µM]
C=C(C)[C@@H]1CC[C@]2(CO)CC[C@]3(C)[C@H](CC[C@@H]4[C@@]5(C)CCCNC(C)(C)[C@@H]5CC[C@]43C)[C@@H]12 [Compound 1, azepanobetulin]	4 * µM	4 * µM	10^−6	–	–	–
C=C(C)[C@@H]1CC[C@]2(C)CC[C@]3(C)[C@H](CC[C@@H]4[C@@]5(C)CCCNC(C)(C)[C@@H]5CC[C@]43C)[C@@H]12 [Compound 2, azepano-lupeol]	–	–	–	4 (≈ 1.7 µg/mL)	4 (≈ 1.7 µg/mL)	4 (≈ 1.7 µg/mL)
C=C(C)[C@@H]1CC[C@]2(CN)CC[C@]3(C)[C@H](CC[C@@H]4[C@@]5(C)CCCNC(C)(C)[C@@H]5CC[C@]43C)[C@@H]12 [Compound 3]	–	–	–	4 (≈ 1.76 µg/mL)	8 (≈ 3.53 µg/mL)	4 (≈ 1.76 µg/mL)
C=C(C)[C@@H]1CC[C@]2(COC(=O)c3ccccc3C(=O)O)CC[C@]3(C)[C@H](CC[C@@H]4[C@@]5(C)CCCNC(C)(C)[C@@H]5CC[C@]43C)[C@@H]12 [Compound 4]	–	–	–	8 (≈ 4.72 µg/mL)	16 (≈ 9.44 µg/mL)	8 (≈ 4.72 µg/mL)
C=C(C)[C@@H]1CC[C@]2(COC(=O)c3cccnc3)CC[C@]3(C)[C@H](CC[C@@H]4[C@@]5(C)CCCNC(C)(C)[C@@H]5CC[C@]43C)[C@@H]12 [Compound 5]	–	–	–	4 (≈ 2.19 µg/mL)	8 (≈ 4.37 µg/mL)	8 (≈ 4.37 µg/mL)
C=C(C)[C@@H]1CC[C@]2(COS(=O)(=O)c3ccc(C)cc3)CC[C@]3(C)[C@H](CC[C@@H]4[C@@]5(C)CCCNC(C)(C)[C@@H]5CC[C@]43C)[C@@H]12 [Compound 6]	–	–	–	4 (≈ 2.38 µg/mL)	4 (≈ 2.38 µg/mL)	4 (≈ 2.38 µg/mL)
C=C(C)[C@@H]1CC[C@]2(C=NNC(=O)c3ccncc3)CC[C@]3(C)[C@H](CC[C@@H]4[C@@]5(C)CCCNC(C)(C)[C@@H]5CC[C@]43C)[C@@H]12 [Compound 7]	–	–	–	8 (≈ 4.47 µg/mL)	0.5 (≈ 0.279 µg/mL)	0.5 (≈ 0.279 µg/mL)
C=C(C)[C@@H]1CC[C@]2(C(=O)NC(CO)Cc3ccccc3)CC[C@]3(C)[C@H](CC[C@@H]4[C@@]5(C)CCCNC(C)(C)[C@@H]5CC[C@]43C)[C@@H]12 (some centres unmarked) [Compound 8]	–	–	–	4 (≈ 2.36 µg/mL)	4 (≈ 2.36 µg/mL)	4 (≈ 2.36 µg/mL)
C=C(C)[C@@H]1CC[C@]2(C(=O)N3CCN(C)CC3)CC[C@]3(C)[C@H](CC[C@@H]4[C@@]5(C)CCCNC(C)(C)[C@@H]5CC[C@]43C)[C@@H]12 [Compound 9]	–	–	–	1 (≈ 0.538 µg/mL)	2 (≈ 1.08 µg/mL)	2 (≈ 1.08 µg/mL)
C=C(C)[C@@H]1CC[C@]2(C(=O)NC3CCCCC3)CC[C@]3(C)[C@H](CC[C@@H]4[C@@]5(C)CCCNC(C)(C)[C@@H]5CC[C@]43C)[C@@H]12 [Compound 10]	–	–	–	4 (≈ 2.15 µg/mL)	4 (≈ 2.15 µg/mL)	4 (≈ 2.15 µg/mL)
C=C(C)[C@@H]1CC[C@]2(COC(C)=O)CC[C@]3(C)[C@H](CC[C@@H]4[C@@]5(C)CCCN(C(C)=O)C(C)(C)[C@@H]5CC[C@]43C)[C@@H]12 [Compound 11]	–	–	–	–	8 (≈ 4.21 µg/mL)	4 (≈ 2.1 µg/mL)
C=C(C)[C@@H]1CC[C@]2(COC(C)=O)CC[C@]3(C)[C@H](CC[C@@H]4[C@@]5(C)CCCN(C(=O)c6cccnc6)C(C)(C)[C@@H]5CC[C@]43C)[C@@H]12 [Compound 12]	–	–	–	–	>32	32 (≈ 18.8 µg/mL)
CC(=O)[C@@H]1CC[C@]2(COS(=O)(=O)c3ccc(C)cc3)CC[C@]3(C)[C@H](CC[C@@H]4[C@@]5(C)CCCNC(C)(C)[C@@H]5CC[C@]43C)[C@@H]12 [Compound 13]	–	–	–	8 (≈ 4.78 µg/mL)	16 (≈ 9.57 µg/mL)	8 (≈ 4.78 µg/mL)
C=C(CBr)[C@@H]1CC[C@]2(COC(C)=O)CC[C@]3(C)[C@H](CC[C@@H]4[C@@]5(C)CCCNC(C)(C)[C@@H]5CC[C@]43C)[C@@H]12 [Compound 14]	–	–	–	16 (≈ 9 µg/mL)	>32	>32
C=C(CN=[N+]=[N-])[C@@H]1CC[C@]2(COC(C)=O)CC[C@]3(C)[C@H](CC[C@@H]4[C@@]5(C)CCCNC(C)(C)[C@@H]5CC[C@]43C)[C@@H]12 [Compound 15]	–	–	–	32 (≈ 16.8 µg/mL)	>32	>32
CC1(C)CCC23CCC4(C)C(CCC5C6(C)CCCNC(C)(C)C6CCC54C)C2C1OC3 (centres unmarked) [Compound 17]	–	–	–	8 (≈ 3.53 µg/mL)	16 (≈ 7.07 µg/mL)	8 (≈ 3.53 µg/mL)
CC(C)=C1CCC=C2CC[C@]3(C)[C@H](CC[C@@H]4[C@@]5(C)CCCNC(C)(C)[C@@H]5CC[C@]43C)[C@H]21 [Compound 18]	–	–	10^−6	–	8 (≈ 3.39 µg/mL)	16 (≈ 6.78 µg/mL)
C#CCNC(=O)[C@]12CC[C@@H](C(=C)C)[C@@H]1[C@H]1CC[C@@H]3[C@@]4(C)CCCNC(C)(C)[C@@H]4CC[C@@]3(C)[C@]1(C)CC2 [Compound 20, 17-(Propargyl)-3-deoxo-3a-homo-3a-aza-lup-20(29)-en-carboxamide]	–	–	–	4 (≈ 1.97 µg/mL)	4 (≈ 1.97 µg/mL)	8 (≈ 3.94 µg/mL)
NNC(=O)c1ccncc1 [Isoniazid, reference compound]	–	–	10^−4	> 2	0.06 (≈ 0.00823 µg/mL)	0.06 (≈ 0.00823 µg/mL)
COc1c(N2C[C@@H]3CCCN[C@@H]3C2)c(F)cc2c(=O)c(C(=O)O)cn(C3CC3)c12 [Moxifloxacin, reference compound]	–	–	–	0.03 (≈ 0.012 µg/mL)	>2	0.03 (≈ 0.012 µg/mL)
O=[N+]([O-])c1cn2c(n1)OC[C@@H](OCc1ccc(OC(F)(F)F)cc1)C2 [Pretomanid, reference compound]	–	–	–	0.06 (≈ 0.0216 µg/mL)	0.125 (≈ 0.0449 µg/mL)	0.06 (≈ 0.0216 µg/mL)
CO[C@H]1/C=C/O[C@@]2(C)Oc3c(C)c(O)c4c(O)c(c(/C=N/N5CCN(C)CC5)c(O)c4c3C2=O)NC(=O)/C(C)=C\C=C\[C@H](C)[C@H](O)[C@@H](C)[C@@H](O)[C@@H](C)[C@H](OC(C)=O)[C@@H]1C [Rifampin, reference compound]	–	–	–	≤ 0.004	≤0.004	>1
